From paper PMC4749519, “Isoprenylated Flavonoids with PTP1B Inhibition from Macaranga denticulata” (Natural Products and Bioprospecting, 2016)

Biological target: T1, protein tyrosine phosphatase 1B (PTP1B) (Homo sapiens, UniProt P18031)
T1 sequence (P18031 1-435): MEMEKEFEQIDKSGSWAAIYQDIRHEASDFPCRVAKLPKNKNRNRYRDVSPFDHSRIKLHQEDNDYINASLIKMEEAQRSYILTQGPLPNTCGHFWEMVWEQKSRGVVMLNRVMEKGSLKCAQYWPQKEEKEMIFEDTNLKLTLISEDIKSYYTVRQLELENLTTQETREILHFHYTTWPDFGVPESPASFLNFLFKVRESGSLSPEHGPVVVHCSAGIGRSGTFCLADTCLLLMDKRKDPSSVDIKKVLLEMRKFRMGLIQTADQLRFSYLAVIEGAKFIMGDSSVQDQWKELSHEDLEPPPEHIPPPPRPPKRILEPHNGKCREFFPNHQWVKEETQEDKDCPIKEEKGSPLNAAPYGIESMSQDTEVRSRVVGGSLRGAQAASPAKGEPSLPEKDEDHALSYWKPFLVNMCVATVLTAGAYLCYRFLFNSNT
Test: Assay of PTP1B activity (in vitro enzyme inhibition)
Format: biochemical
Conditions: in vitro PTP1B enzymatic activity; oleanolic acid as positive control; read-out: IC50 ± SD, inhibitory activity against PTP1B
Method: The bioassay procedure was the same as that reported previously. The result of PTP1B inhibition was expressed as IC50, which was calculated with Prism 4 software (Graphpad, San Diego, CA).

COc1ccc(/C=C/C(=O)c2c(O)c(C)c(O)c3c2OC(C)(C)C=C3)cc1 [Compound 4, (2E)-1-(5,7-dihydroxy-2,2,6-trimethyl-2H-benzopyran-8-yl)-3-(4-methoxyphenyl)-2-propen-1-one]
IC50: 48.8 ± 5.5 µM

CC1(C)C=Cc2c(O)c(C(=O)/C=C/c3ccc(O)cc3)c3c(c2O1)C=CC(C)(C)O3 [Compound 6, laxichalcone]
IC50: 20.7 ± 5.3 µM

CC(C)=CCC/C(C)=C/Cc1c(O)cc2c(c1O)C(=O)C[C@@H](c1ccc(O)cc1)O2 [Compound 9, bonannione A]
IC50: 14 ± 1.2 µM

CC(C)=CCC/C(C)=C/Cc1c(O)cc2oc(-c3ccc(O)cc3)c(O)c(=O)c2c1O [Compound 7, macarangin]
IC50: 22.7 ± 4.6 µM

CC1(C)C=Cc2c(O)cc(O)c(C(=O)/C=C/c3ccccc3)c2O1 [Compound 5, (2E)-1-(5,7-dihydroxy-2,2-dimethyl-2H-benzopyran-8-yl)-3-phenyl-2-propen-1-one]
IC50: 19.3 ± 1.4 µM

CC(C)=CCC/C(C)=C/Cc1c(O)cc2c(c1O)C(=O)[C@H](O)[C@@H](c1ccc(O)cc1)O2 [Compound 8, bonanniol A]
IC50: 15.2 ± 2.8 µM
